Test results as given in article PMC6326523, “A high-throughput screen to identify novel small molecule inhibitors of the Werner Syndrome Helicase-Nuclease (WRN)” (PLoS ONE, 2019).

Experiments:
[1] = target: T1, full-length FANCJ helicase (Homo sapiens, UniProt Q9BX63); experiment: Radiometric helicase assay, full-length FANCJ; assay type: biochemical; conditions: for IC50: full-length FANCJ 5 nM, FORKR 0.5 nM
T1 construct: Full length recombinant WRN [18], BLM [19], and FANCJ [20] proteins were purified from insect cells; made in house; host or cells: insect cells
T1 sequence (Q9BX63 1-1249): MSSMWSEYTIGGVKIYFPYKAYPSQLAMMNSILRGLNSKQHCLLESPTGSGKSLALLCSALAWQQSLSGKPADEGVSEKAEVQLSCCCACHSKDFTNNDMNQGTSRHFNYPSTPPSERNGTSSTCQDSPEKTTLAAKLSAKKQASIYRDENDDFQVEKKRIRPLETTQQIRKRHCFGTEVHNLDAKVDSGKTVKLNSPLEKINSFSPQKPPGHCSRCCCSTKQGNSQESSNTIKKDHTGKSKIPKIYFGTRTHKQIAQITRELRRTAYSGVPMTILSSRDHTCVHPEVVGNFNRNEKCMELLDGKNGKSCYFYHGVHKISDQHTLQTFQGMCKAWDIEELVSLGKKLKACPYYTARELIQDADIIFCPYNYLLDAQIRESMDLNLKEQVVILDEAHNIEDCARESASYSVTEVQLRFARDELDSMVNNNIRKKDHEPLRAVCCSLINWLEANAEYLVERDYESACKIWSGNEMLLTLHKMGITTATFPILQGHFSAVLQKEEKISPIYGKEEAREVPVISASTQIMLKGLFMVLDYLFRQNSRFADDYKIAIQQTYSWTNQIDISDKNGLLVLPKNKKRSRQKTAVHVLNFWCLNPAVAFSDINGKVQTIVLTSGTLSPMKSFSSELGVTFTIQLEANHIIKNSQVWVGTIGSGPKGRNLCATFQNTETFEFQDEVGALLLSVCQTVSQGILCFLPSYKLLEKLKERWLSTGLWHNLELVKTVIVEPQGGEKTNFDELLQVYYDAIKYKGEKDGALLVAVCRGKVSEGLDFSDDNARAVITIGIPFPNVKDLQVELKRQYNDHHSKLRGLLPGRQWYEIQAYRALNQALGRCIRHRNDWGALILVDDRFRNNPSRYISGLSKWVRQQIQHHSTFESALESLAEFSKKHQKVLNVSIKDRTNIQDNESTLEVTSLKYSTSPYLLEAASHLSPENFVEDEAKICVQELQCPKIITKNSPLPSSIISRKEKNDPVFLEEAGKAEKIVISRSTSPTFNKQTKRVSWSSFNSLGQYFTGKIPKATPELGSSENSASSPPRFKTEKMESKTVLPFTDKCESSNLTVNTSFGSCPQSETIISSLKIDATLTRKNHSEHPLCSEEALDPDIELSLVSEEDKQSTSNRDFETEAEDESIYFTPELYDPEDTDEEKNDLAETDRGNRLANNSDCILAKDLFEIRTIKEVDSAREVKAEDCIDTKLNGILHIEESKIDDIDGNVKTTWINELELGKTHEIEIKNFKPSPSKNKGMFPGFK
Method: Fifteen μL of reaction buffer was added to a microcentrifuge tube followed by the addition of 1 μL of selected compounds (0.5–100 μM final concentration) or DMSO. One μL of WRN (full length), RECQ1, FANCJ, BLM or control was added to each reaction and incubated at room temperature for 15 min. Three μL of substrate (0.5 nM FORKR and 2 mM ATP final concentrations) were added to all reactions which were incubated at 37°C for 15 min. Reactions were stopped with the addition of 20 μL of 2X STOP dye containing EDTA, glycerol, bromphenol blue and xylene cyanol. Samples were electrophoresed for 1.5 hr at 200 V on a 12% non-denaturing PAGE gel in 1X TBE Buffer.
Three compounds identified from the cherry-picked set were tested for their effects on WRN exonuclease activity (20 nM) on the FORKR DNA substrate (1 nM) as well as DNA unwinding by full-length BLM (0.1 nM) and FANCJ (5 nM) helicases, which belong to the same Superfamily 2 as WRN [25], to assess their specificity for inhibition of WRN-catalyzed unwinding of the FORKR DNA substrate (0.5 nM). […] Nonetheless, these two compounds were also further tested in cell-based assays to assess their effects on proliferation.
Supplementary file pone.0210525.s005.TIF: S5 Fig Specificity of select WRN inhibitors for inhibition of other human helicases. (A) Quantitation of full-length BLM helicase (0.1 nM) activity on the FORKR DNA substrate (0.5 nM) with increasing concentration of each compound (0–100 μM). (B) Quantitation of full-length FANCJ (5 nM) helicase activity on the FORKR DNA substrate (0.5 nM) with increasing concentration of each compound (0–100 μM). (TIF) Click here for additional data file.

[2] = target: T2, WRN helicase domain fragment (Homo sapiens, UniProt Q14191); experiment: WRN-hel-f2 protocol qHTS confirmatory (15 compound confirmatory assay); assay type: biochemical; conditions: NA = Not Active
T2 construct: GST (N); made in house
T2 sequence (Q14191 500-946): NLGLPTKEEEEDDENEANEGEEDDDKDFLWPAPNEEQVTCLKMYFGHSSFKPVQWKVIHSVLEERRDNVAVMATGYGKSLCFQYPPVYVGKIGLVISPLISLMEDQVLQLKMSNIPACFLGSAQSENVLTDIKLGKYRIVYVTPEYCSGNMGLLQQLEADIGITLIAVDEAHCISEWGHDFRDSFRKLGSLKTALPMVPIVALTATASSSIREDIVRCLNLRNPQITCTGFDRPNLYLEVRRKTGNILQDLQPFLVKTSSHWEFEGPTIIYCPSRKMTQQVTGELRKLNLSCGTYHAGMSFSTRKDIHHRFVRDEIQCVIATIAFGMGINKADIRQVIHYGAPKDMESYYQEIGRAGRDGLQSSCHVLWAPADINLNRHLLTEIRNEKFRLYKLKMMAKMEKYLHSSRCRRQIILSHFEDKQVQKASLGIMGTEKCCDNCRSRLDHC
Method: The structures of the members of this collection are available in the PubChem portal https://pubchem.ncbi.nlm.nih.gov/. For both the 350,000 small molecule collection and the LOPAC^1280 screens, 3 μL of GST-WRN500-946 or reaction buffer only were dispensed using a solenoid-valve nanoliter dispenser into a black 1536-well plate (Greiner). Twenty three nL of each serially diluted compound (0.08–50 μM for the LOPAC screen and 0.003–114 μM for the larger library screen) or control were added to each well using a Kalypsys pintool equipped with a 1536-pin array. Plates were incubated at room temperature for 15 min, followed by initiation of the reactions via the addition of 1 μL of substrate (100 nM FORKF and 2 mM ATP final concentrations). Plates were transferred to a ViewLux high-throughput CCD imager and fluorescence was measured in kinetic mode using an excitation filter of 525 nm and emission filter of 598 nm.

Row | Structure (SMILES) | IC50 for WRN helicase inhibition fold less than that observed for FANCJ ([1]; WRN vs FANCJ) [fold] | IC50 [1] [µM] | IC50 [2] [µM]
1 | Cc1ccc(-c2csc(NS(=O)(=O)c3cccc(F)c3)n2)o1 [MLS002251300-02] | 6 | 28.5 ± 2 | 20
2 | COc1ccc2nc(O)c(-c3noc(-c4ccc(F)cc4)n3)cc2c1 [NCGC00029283-02] | – | 3.4 ± 0.5 | 0.45
3 | COc1ccc2nc(O)c(-c3noc(-c4ccccc4)n3)cc2c1 [NCGC00063279-02] | – | 13.9 ± 2.6 | 2.5
